Where “and” joins values, the source holds several entries; their conditions need not be identical. Equal entries are not always repeated.
Legend:
[1] = system: patients with low urinary tract syndrome (LUTS) and mild to moderate hypertension; experiment: Clinical study, Amlodipine 5 mg vs Terazosin 2 mg for 4 weeks: IPSS, urinary flow rate, blood pressure; assay type: in vivo, human; parameters: key to BOO (obstructive symptoms score) / OAB (irritative symptoms score): IPSS sub-scores in points (symptom items of IPSS); settings: for Percentage of improvement at Week 4: BOO / Percentage of improvement at Week 4: DBP / Percentage of improvement at Week 4: IPSS / Percentage of improvement at Week 4: OAB / Percentage of improvement at Week 4: Qave / Percentage of improvement at Week 4: Qmax / Percentage of improvement at Week 4: SBP: Week 4 vs Week 0
From the text: 1) Male, 50-75 years old. […] 3) International Prostate Symptom Score (IPSS)≧8 points
Storage, reservation and delivery of drugs were in accordance with Standard Operation Procedure (SOP).
Obstructive symptoms score includes hesitancy of micturition, reduced or interrupted urinary stream and sensation of incomplete bladder emptying, which mainly reflect BOO. Irritative symptoms score refers to urinary urgency and frequency, and an increase in night micturition, reflecting OAB symptoms. In this study, a total score of IPSS is considered as primary index. Sub-scores on BOO and OAB were also considered.
All data, doubly entered using Epi-info 3.0 and presented as mean±standard deviation (SD), were analyzed using SAS 8.0. A paired t-test was employed to compare pre- and post-treatment scores, and a multiple regression analysis was further performed to adjust for important covariates. Difference was considered significant at P<0.05.

[2] = system: rats with BPH; experiment: Urodynamic parameters and urine volumes in castrated, testosterone propionate-treated SD rats with BPH; assay type: in vivo, rat (male SD)
Protocol: Afterwards, the bilateral testicles of the rats were resected under an aseptic condition. Then the rats received an intramuscular injection of penicillin at 20000 U/kg/d for 3 days, and 1 week later a subcutaneous injection of testosterone propionate (dissolved in olive oil) at 0.5 mg/pec, once daily for 21 consecutive days.
(§1) In the treatment groups, the rats were orally administered by infusion at 1 ml/100 g body weight once daily for 14 consecutive days after 7-day injection with testosterone propionate. In the blank and model groups, the rats were orally perfused with isovolumetric physiological saline.
(§2) The rats were anaesthetized by a peritoneal injection of 20% ethyl carbamate at a dose of 1000 mg/kg. The rat bladder was exposed by cutting a longitudinal incision on the upper of pubic arch. Piercing the top of bladder made a little hole, where a catheter with cannulas was inserted. The outside cannula (Φ 1.2 mm) with a pressreceptor was linked to PC-Lab multi-lead physiological recording system. The inside cannula (Φ 0.61 mm) was connected to an injection pump with constant infusion speed (2 ml/h). After last administration, the urodynamic parameters, single urine volume, and residual urine volume in rats were respectively collected.
(§3) Data were presented as mean±SD. One way-ANOVA was employed for group comparison.

[3] = system: spontaneous hypertensive rats (SHR) with prostate hyperplasia; experiment: Urodynamic parameters and urine volumes in spontaneous hypertensive rats (SHR) with prostate hyperplasia; assay type: in vivo, rat (SHR); settings: Amlodipine 0.5 mg/kg (A3) oral once daily 14 days
Protocol: as §1, §2, §3

[4] = Week 0 (before treatment), groups Amlodipine 5 mg (N=90), Terazosin 2 mg (N=62)
[5] = Week 4, Amlodipine 5 mg or Terazosin 2 mg oral for 4 consecutive weeks
[6] = Amlodipine 5 mg or Terazosin 2 mg oral for 4 weeks
[7] = multiple regression adjusted for age and BMI, Amlodipine 5 mg vs Terazosin 2 mg, 4 weeks
[8] = multiple regression, crude, Amlodipine 5 mg vs Terazosin 2 mg, 4 weeks
[9] = Amlodipine 0.25 mg/kg (A1) oral once daily 14 days
[10] = Amlodipine 0.5 mg/kg (A2) oral once daily 14 days

CCOC(=O)C1=C(COCCN)NC(C)=C(C(=O)OC)C1c1ccccc1Cl (stereo not drawn) [Amlodipine] was tested, and the “BOO (obstructive symptoms score)” value [1, 4] was 9.1 ± 4.2, the DBP [1, 4] was 88.6 ± 8.9 mmHg and the “OAB (irritative symptoms score)” value [1, 4] was 7.3 ± 3.3. For the same compound, the Qave [1, 4] was 8.9 ± 4.1 mL/s, the Qmax [1, 4] was 17.3 ± 6.7 mL/s and the SBP [1, 4] was 155.4 ± 16.1 mmHg. For the same compound, the “BOO (obstructive symptoms score)” value [1, 5] was 5.8 ± 4.6, the DBP [1, 5] was 82.0 ± 8.9 mmHg and the IPSS [1, 5] was 11.1 ± 6.7. For the same compound, the “OAB (irritative symptoms score)” value [1, 5] was 5.5 ± 3.2, the Qave [1, 5] was 8.8 ± 3.8 mL/s and the Qmax [1, 5] was 17.7 ± 6.9 mL/s. The SBP [1, 5] was 140.9 ± 15.4 mmHg, the “Percentage of improvement at Week 4: BOO” value [1, 6] was 33.3 ± 53.2 % and the “Percentage of improvement at Week 4: DBP” value [1, 6] was 7.2 ± 7.1 % and 7.22 ± 7.09%. The “Percentage of improvement at Week 4: IPSS” value [1, 6] was 30.2 ± 39.7 % and 30.17 ± 39.7%, the “Percentage of improvement at Week 4: OAB” value [1, 6] was 17.3 ± 49.3 % and the “Percentage of improvement at Week 4: Qave” value [1, 6] was 5.0 ± 35.2% and 5.04 ± 35.25%. For the same compound, the “Percentage of improvement at Week 4: Qmax” value [1, 6] was 7.1 ± 41.1% and 7.09 ± 41.10%, the “Percentage of improvement at Week 4: SBP” value [1, 6] was 8.9 ± 9.6 % and 8.89 ± 9.61% and the “Percentage of improvement, (2)-(1) Amlodipine minus Terazosin, β Adjust: BOO” value [1, 7] was 0.3. The “Percentage of improvement, (2)-(1) Amlodipine minus Terazosin, β Adjust: DBF” value [1, 7] was 5.1, the “Percentage of improvement, (2)-(1) Amlodipine minus Terazosin, β Adjust: IPSS” value [1, 7] was 1.4 and the “Percentage of improvement, (2)-(1) Amlodipine minus Terazosin, β Adjust: OAB” value [1, 7] was 8.6. The “Percentage of improvement, (2)-(1) Amlodipine minus Terazosin, β Adjust: Qave” value [1, 7] was −8.4, the “Percentage of improvement, (2)-(1) Amlodipine minus Terazosin, β Adjust: Qmax” value [1, 7] was −5.0 and the “Percentage of improvement, (2)-(1) Amlodipine minus Terazosin, β Adjust: SBP” value [1, 7] was 5.7. For the same compound, the “Percentage of improvement, (2)-(1) Amlodipine minus Terazosin, β Crude: BOO” value [1, 8] was 1.1, the “Percentage of improvement, (2)-(1) Amlodipine minus Terazosin, β Crude: DBF” value [1, 8] was 4.9 and the “Percentage of improvement, (2)-(1) Amlodipine minus Terazosin, β Crude: IPSS” value [1, 8] was 2.0. The “Percentage of improvement, (2)-(1) Amlodipine minus Terazosin, β Crude: OAB” value [1, 8] was 9.6, the “Percentage of improvement, (2)-(1) Amlodipine minus Terazosin, β Crude: Qave” value [1, 8] was −8.7 and the “Percentage of improvement, (2)-(1) Amlodipine minus Terazosin, β Crude: Qmax” value [1, 8] was −5.7. The “Percentage of improvement, (2)-(1) Amlodipine minus Terazosin, β Crude: SBP” value [1, 8] was 5.6, the Interval of micturition [2, 9] was 734.8 ± 210.5 s and the “Peak value of micturition pressure” value [2, 9] was 37.5 ± 7.0 mmHg. For the same compound, the “Point pressure of micturition” value [2, 9] was 33.4 ± 3.3 mmHg, the “Qave. (average urinary flow rate)” value [2, 9] was 3.7 ± 1.2 mL/s and the Time of micturition [2, 9] was 8.9 ± 1.6 s. The Interval of micturition [2, 10] was 762.3 ± 274.8 s, the “Peak value of micturition pressure” value [2, 10] was 30.5 ± 5.5 mmHg and the “Point pressure of micturition” value [2, 10] was 30.6 ± 3.9 mmHg. The “Qave. (average urinary flow rate)” value [2, 10] was 4.0 ± 1.9 mL/s, the Time of micturition [2, 10] was 8.4 ± 1.8 s and the Interval of micturition [3] was 786.0 ± 237.5 s. For the same compound, the “Peak value of micturition pressure” value [3] was 31.8 ± 7.3 mmHg, the “Point pressure of micturition” value [3] was 31.4 ± 3.6 mmHg and the “Qave. (average urinary flow rate)” value [3] was 4.4 ± 1.6 mL/s. The Time of micturition [3] was 8.0 ± 1.1 s.

With COc1cc2nc(N3CCN(C(=O)C4CCCO4)CC3)nc(N)c2cc1OC (stereo not drawn) [Terazosin] the “indices improved between week 0 and week 4” value [1, 6] was “remarkable improvement in IPSS, BOO-related score, maximum urinary flow rate (Qmax) and Qave, and a decrease in systolic blood pressure”, the “indices without improvement between week 0 and week 4” value [1, 6] was “no improvement in OAB-related score and diastolic blood pressure” and the “BOO (obstructive symptoms score)” value [1, 4] was 6.6 ± 3.5. The DBP [1, 4] was 86.6 ± 9.0 mmHg, the IPSS [1, 4] was 13.2 ± 4.4 and the “OAB (irritative symptoms score)” value [1, 4] was 6.6 ± 3.0. It also gave a Qave [1, 4] of 8.9 ± 3.9 mL/s, a Qmax [1, 4] of 17.7 ± 7.0 mL/s and an SBP [1, 4] of 152.8 ± 15.9 mmHg. For the same compound, the “BOO (obstructive symptoms score)” value [1, 5] was 4.2 ± 4.3, the DBP [1, 5] was 84.5 ± 11.4 mmHg and the IPSS [1, 5] was 9.4 ± 5.9. The “OAB (irritative symptoms score)” value [1, 5] was 5.3 ± 2.8, the Qave [1, 5] was 9.9 ± 4.2 mL/s and the Qmax [1, 5] was 19.4 ± 7.4 mL/s. For the same compound, the SBP [1, 5] was 147.0 ± 17.8 mmHg, the “Percentage of improvement at Week 4: BOO” value [1, 6] was 32.2 ± 63.5 % and the “Percentage of improvement at Week 4: DBP” value [1, 6] was 2.3 ± 10.1% and 2.31 ± 10.12%. The “Percentage of improvement at Week 4: IPSS” value [1, 6] was 28.1 ± 40.5 % and 28.15 ± 40.5%, the “Percentage of improvement at Week 4: OAB” value [1, 6] was 7.7 ± 54.8% and the “Percentage of improvement at Week 4: Qave” value [1, 6] was 13.8 ± 25.9 % and 13.77 ± 25.86%. For the same compound, the “Percentage of improvement at Week 4: Qmax” value [1, 6] was 12.8 ± 30.5 % and 12.8 ± 30.47% and the “Percentage of improvement at Week 4: SBP” value [1, 6] was 3.3 ± 11.9 % and 3.28 ± 11.92%.
